Laboratory results taken from patent publication US20250235455A1, “AQUEOUS TICAGRELOR SOLUTIONS, METHOD OF MANUFACTURING AND USES” (HYLORIS DEVELOPMENTS SA, priority 2022, published 2025).

Key:
Type in all cases: physicochemical
[1] = pH and osmolality determination in undiluted batches; settings: 19 mM phosphate buffer pH 7.5
Excerpt: From the results obtained in Example 4 it follows that the concentration of excipients may be such that the resulting ticagrelor solution is hypertonic. The osmolality and pH of several batches was checked.

[2] = Impact of buffer strength on pH, osmolality, assay and impurities
Method: In addition, a screening was conducted on the impact of buffer strength on pH and osmolality.

[3] = Impact of packaging on stability, HPβCD 32.5% w/w, 5 mM pH 7.5 phosphate buffer, 40° C./75% RH; settings: for Assay: in %
Method: To study the potential impact of the packaging material on the stability of the ticagrelor-cyclodextrin inclusion complex a composition with 32.5% w/w HPβCD was prepared with procedures and precaution's similar to previous trials, samples were stored in transparent clear glass vials and amber colored glass vials at a temperature of 40° C./75% RH.

[4] = Phosphate buffer pH 7.5 strength 0.19 mM
[5] = Phosphate buffer pH 7.5 strength 5 mM
[6] = Phosphate buffer pH 7.5 strength 10 mM
[7] = Phosphate buffer pH 7.5 strength 19 mM
[8] = Amber colour USP Type I Glass vials, 1 M
[9] = Amber colour USP Type I Glass vials, 2 M
[10] = Amber colour USP Type I Glass vials, 3 M
[11] = Amber colour USP Type I Glass vials, T0
[12] = Clear USP Type I Glass vials, 1 M
[13] = Clear USP Type I Glass vials, 2 M
[14] = Clear USP Type I Glass vials, 3 M
[15] = Clear USP Type I Glass vials, T0

CCCSc1nc(N[C@@H]2C[C@H]2c2ccc(F)c(F)c2)c2nnn([C@@H]3C[C@H](OCCO)[C@@H](O)[C@H]3O)c2n1 [Ticagrelor, (1S,2S,3R,5S)-3-{7-[(1R,2S)-2-(3,4-difluorophenyl)cyclopropylamino]5-(propylthio)-3H-(1,2,3)triazolo (4,5-D)pyrimidin-3-yl}-5-(2 hydroxyethoxy)cyclopentane-1,2-diol]
Assay ([1]; HPβCD 22.5% w/w): 98.15%
Osmolality undiluted ([1]; HPβCD 22.5% w/w): 392 mOsm/kg
Total Impurities ([1]; HPβCD 22.5% w/w): 0.39%
pH undiluted ([1]; HPβCD 22.5% w/w): 7.67
Assay ([1]; HPβCD 25.0% w/w): 103.23%
Osmolality undiluted ([1]; HPβCD 25.0% w/w): 493 mOsm/kg
Total Impurities ([1]; HPβCD 25.0% w/w): 0.41%
pH undiluted ([1]; HPβCD 25.0% w/w): 7.69
Assay ([1]; HPβCD 27.5% w/w): 104.27%
Osmolality undiluted ([1]; HPβCD 27.5% w/w): 549 mOsm/kg
Total Impurities ([1]; HPβCD 27.5% w/w): 0.42%
pH undiluted ([1]; HPβCD 27.5% w/w): 7.69
Assay ([1]; HPβCD 30.0% w/w): 107.64%
Osmolality undiluted ([1]; HPβCD 30.0% w/w): 638 mOsm/kg
Total Impurities ([1]; HPβCD 30.0% w/w): 0.44%
pH undiluted ([1]; HPβCD 30.0% w/w): 7.74
Assay ([1]; HPβCD 32.5% w/w): 99.26%
Osmolality undiluted ([1]; HPβCD 32.5% w/w): 813 mOsm/kg
Total Impurities ([1]; HPβCD 32.5% w/w): 0.41%
pH undiluted ([1]; HPβCD 32.5% w/w): 7.68
Osmolality sample ([2]; Phosphate buffer pH 7.5): 809 mOsm/kg
Assay [2, 4]: 102.23%
Total Impurities [2, 4]: 0.42%
pH sample [2, 4]: 7.18
Assay [2, 5]: 100.49%
Osmolality sample [2, 5]: 703 mOsm/kg
Total Impurities [2, 5]: 0.40%
pH sample [2, 5]: 7.66
Assay [2, 6]: 102.98%
Osmolality sample [2, 6]: 724 mOsm/kg
Total Impurities [2, 6]: 0.42%
pH sample [2, 6]: 7.69
Assay [2, 7]: 102.58%
Osmolality sample [2, 7]: 758 mOsm/kg
Total Impurities [2, 7]: 0.42%
pH sample [2, 7]: 7.70
Acetal impurity [3, 8]: 0.05%
Amine impurity [3, 8]: 0.04%
Description [3, 8]: clear
Regiomer [3, 8]: 0.01%
Sum Impurities >0.05 [3, 8]: 0.05%
Total impurity [3, 8]: 0.22%
Triol impurity [3, 8]: 0.02%
pH [3, 8]: 7.70
Assay [3, 8]: 100.24
Acetal impurity [3, 9]: 0.04%
Amine impurity [3, 9]: 0.04%
Description [3, 9]: clear
Regiomer [3, 9]: 0.02%
Sum Impurities >0.05 [3, 9]: 0.00%
Total impurity [3, 9]: 0.28%
Triol impurity [3, 9]: 0.04%
pH [3, 9]: 7.69
Assay [3, 9]: 99.89
Acetal impurity [3, 10]: 0.05%
Amine impurity [3, 10]: 0.06%
Description [3, 10]: clear
Regiomer [3, 10]: 0.04%
Sum Impurities >0.05 [3, 10]: 0.16%
Total impurity [3, 10]: 0.33%
Triol impurity [3, 10]: 0.05%
pH [3, 10]: 7.66
Assay [3, 10]: 98.93
Acetal impurity [3, 11]: 0.05%
Amine impurity [3, 11]: 0.04%
Description [3, 11]: clear
Regiomer [3, 11]: 0.00%
Sum Impurities >0.05 [3, 11]: 0.18%
Total impurity [3, 11]: 0.40%
Triol impurity [3, 11]: 0.04%
pH [3, 11]: 7.66
Assay [3, 11]: 98.34
Acetal impurity [3, 12]: 0.04%
Amine impurity [3, 12]: 0.04%
Description [3, 12]: clear
Regiomer [3, 12]: 0.01%
Sum Impurities >0.05 [3, 12]: 0.00%
Total impurity [3, 12]: 0.22%
Triol impurity [3, 12]: 0.03%
pH [3, 12]: 7.65
Assay [3, 12]: 101.71
Acetal impurity [3, 13]: 0.04%
Amine impurity [3, 13]: 0.04%
Description [3, 13]: clear
Regiomer [3, 13]: 0.02%
Sum Impurities >0.05 [3, 13]: 0.05%
Total impurity [3, 13]: 0.28%
Triol impurity [3, 13]: 0.05%
pH [3, 13]: 7.63
Assay [3, 13]: 99.69
Acetal impurity [3, 14]: 0.05%
Amine impurity [3, 14]: 0.06%
Description [3, 14]: clear
Regiomer [3, 14]: 0.04%
Sum Impurities >0.05 [3, 14]: 0.16%
Total impurity [3, 14]: 0.33%
Triol impurity [3, 14]: 0.05%
pH [3, 14]: 7.58
Assay [3, 14]: 98.25
Acetal impurity [3, 15]: 0.05%
Amine impurity [3, 15]: 0.04%
Description [3, 15]: clear
Regiomer [3, 15]: 0.00%
Sum Impurities >0.05 [3, 15]: 0.22%
Total impurity [3, 15]: 0.40%
Triol impurity [3, 15]: 0.05%
pH [3, 15]: 7.65
Assay [3, 15]: 98.34
